The structures appear in SMILES notation.

The target of this experiment is T1, human acetyl-CoA carboxylase 2 (ACC2) (Homo sapiens, UniProt O00763).
T1 construct: The cDNA encoding amino acids 144 to 2458 of human acetyl-CoA carboxylase 2; made in house; host or cells: Sf9 insect cells (baculovirus, pFastBac1)
T1 sequence (O00763 144-2458): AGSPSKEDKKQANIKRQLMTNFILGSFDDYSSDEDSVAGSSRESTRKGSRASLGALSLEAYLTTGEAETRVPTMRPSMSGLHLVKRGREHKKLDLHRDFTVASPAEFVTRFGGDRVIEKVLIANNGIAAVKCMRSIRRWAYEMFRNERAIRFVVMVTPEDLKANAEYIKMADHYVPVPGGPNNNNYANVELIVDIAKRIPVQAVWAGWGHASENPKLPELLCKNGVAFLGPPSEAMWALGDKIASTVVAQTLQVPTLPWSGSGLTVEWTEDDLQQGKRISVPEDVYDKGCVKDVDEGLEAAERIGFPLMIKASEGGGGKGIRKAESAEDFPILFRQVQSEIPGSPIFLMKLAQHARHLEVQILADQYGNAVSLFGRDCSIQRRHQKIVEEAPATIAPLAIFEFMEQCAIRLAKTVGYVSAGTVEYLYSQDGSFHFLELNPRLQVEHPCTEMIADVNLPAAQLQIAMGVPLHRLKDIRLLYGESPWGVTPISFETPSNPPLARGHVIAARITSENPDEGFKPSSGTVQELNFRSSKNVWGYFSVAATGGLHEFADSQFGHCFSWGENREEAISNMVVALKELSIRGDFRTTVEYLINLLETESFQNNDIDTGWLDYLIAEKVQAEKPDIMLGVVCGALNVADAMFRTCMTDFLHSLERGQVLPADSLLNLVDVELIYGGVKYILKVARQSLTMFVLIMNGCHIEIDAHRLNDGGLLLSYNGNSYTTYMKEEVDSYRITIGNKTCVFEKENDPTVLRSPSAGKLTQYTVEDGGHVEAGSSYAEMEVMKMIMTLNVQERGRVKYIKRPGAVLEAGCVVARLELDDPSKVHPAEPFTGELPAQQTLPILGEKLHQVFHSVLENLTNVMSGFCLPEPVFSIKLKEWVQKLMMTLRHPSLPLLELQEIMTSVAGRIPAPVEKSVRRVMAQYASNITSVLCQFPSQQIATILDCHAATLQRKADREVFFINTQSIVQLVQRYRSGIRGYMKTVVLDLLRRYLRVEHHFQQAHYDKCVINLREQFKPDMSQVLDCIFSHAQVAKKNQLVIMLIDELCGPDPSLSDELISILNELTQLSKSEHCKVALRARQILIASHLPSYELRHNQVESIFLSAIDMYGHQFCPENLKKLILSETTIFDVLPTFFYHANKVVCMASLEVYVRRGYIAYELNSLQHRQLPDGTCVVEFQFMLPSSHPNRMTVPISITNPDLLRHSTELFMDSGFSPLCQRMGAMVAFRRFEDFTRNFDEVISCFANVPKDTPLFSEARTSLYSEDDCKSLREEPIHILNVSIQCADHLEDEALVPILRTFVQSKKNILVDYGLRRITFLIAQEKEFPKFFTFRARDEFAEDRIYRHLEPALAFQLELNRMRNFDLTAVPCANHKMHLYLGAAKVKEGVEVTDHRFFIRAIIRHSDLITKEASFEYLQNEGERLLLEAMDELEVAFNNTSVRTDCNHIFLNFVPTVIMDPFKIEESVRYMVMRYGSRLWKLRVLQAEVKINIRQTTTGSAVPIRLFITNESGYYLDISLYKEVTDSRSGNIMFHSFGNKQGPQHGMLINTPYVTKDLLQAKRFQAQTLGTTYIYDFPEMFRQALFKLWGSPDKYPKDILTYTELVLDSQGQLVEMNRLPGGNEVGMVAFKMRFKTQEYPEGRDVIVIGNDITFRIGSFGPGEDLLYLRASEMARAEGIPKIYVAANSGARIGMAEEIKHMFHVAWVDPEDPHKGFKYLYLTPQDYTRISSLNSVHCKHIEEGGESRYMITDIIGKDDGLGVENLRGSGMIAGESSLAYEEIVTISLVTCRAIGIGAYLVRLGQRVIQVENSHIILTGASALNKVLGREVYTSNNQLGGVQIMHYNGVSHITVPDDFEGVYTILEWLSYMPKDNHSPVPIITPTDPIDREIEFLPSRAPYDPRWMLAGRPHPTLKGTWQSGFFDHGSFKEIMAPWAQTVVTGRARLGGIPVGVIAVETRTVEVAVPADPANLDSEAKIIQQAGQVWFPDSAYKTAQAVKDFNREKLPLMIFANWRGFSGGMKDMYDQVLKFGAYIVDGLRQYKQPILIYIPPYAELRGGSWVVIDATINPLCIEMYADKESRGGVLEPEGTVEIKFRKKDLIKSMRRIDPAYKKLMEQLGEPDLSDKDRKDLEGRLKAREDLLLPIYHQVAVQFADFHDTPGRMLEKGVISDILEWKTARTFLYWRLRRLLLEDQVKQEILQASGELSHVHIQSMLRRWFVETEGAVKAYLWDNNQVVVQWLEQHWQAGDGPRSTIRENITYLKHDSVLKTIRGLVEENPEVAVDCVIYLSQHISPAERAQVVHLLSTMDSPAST
In words: Acetyl-CoA carboxylase enzyme assay (malonyl-CoA formation by LC/MS/MS). The following applies: recombinant human ACC2 (aa 144-2458); read-out: IC50 ACC2. The class given is biochemical. In outline: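 Malonyl-CoA formation was read by LC/MS/MS MRM against a [13C3]-malonyl-CoA internal standard, after acetic acid quench. The enzyme was baculovirus/Sf9-expressed human ACC2 residues 144–2458, given 15 minutes room-temperature compound preincubation in HEPES pH 7.5 buffer with MgCl2, citrate and DTT. Substrate solution held 50 μM acetyl-CoA, 120 μM ATP and 2 mM KHCO3.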
One may read the IC50 as the point on the concentration scale where inhibition reaches its midpoint. As for `CC(C)OC(=O)c1ccc(NS(=O)(=O)c2ccc3[nH]c(Nc4ccc(C#N)cc4)nc3c2)cc1` [Example 552, isopropyl 4-(2-(4-cyanophenylamino)-1H-benzo[d]imidazole-5-sulfonamido)benzoate], the IC50 amounted to 334 nM. As to `O=C(Nc1cc(F)cc(F)c1)[C@H]1CC[C@H](NS(=O)(=O)c2ccc3[nH]c(-c4ccccc4)nc3c2)CC1` [Example 646, (1r,4r)-N-(3,5-difluorophenyl)-4-(2-phenyl-1H-benzo[d]imidazole-5-sulfonamido)cyclohexanecarboxamide], the IC50 turned out to be 1340 nM. Regarding `O=C(NCC1CC1)[C@H]1CC[C@H](NS(=O)(=O)c2ccc3[nH]c(-c4ccccc4)nc3c2)CC1` [Example 637, (1r,4r)-N-(cyclopropylmethyl)-4-(2-phenyl-1H-benzo[d]imidazole-5-sulfonamido)cyclohexanecarboxamide], the IC50 is 372 nM.

Regarding `Cn1c(C2CC2)cc2ccc(S(=O)(=O)N[C@H]3CC[C@H](C(=O)N[C@@H](c4ccccc4)C(C)(C)O)CC3)cc21` [Example 355, (1r,4S)-4-(2-cyclopropyl-1-methyl-1H-indole-6-sulfonamido)-N-((S)-2-hydroxy-2-methyl-1-phenylpropyl)cyclohexanecarboxamide], the IC50 was less than 10 nM. Then `Cc1nc2ccc(S(=O)(=O)N[C@H]3CC[C@H](C(=O)N[C@H](C)c4ccc(F)cc4)CC3)cc2s1` [Example 660, (1r,4R)-N-((R)-1-(4-fluorophenyl)ethyl)-4-(2-methylbenzo[d]thiazole-6-sulfonamido)cyclohexanecarboxamide], with 242 nM; and `O=C1NCCCCC1NC(=O)[C@H]1CC[C@H](NS(=O)(=O)c2ccc3cc(-c4ccccc4)[nH]c3c2)CC1` (stereo partly drawn) [Example 466, (1r,4r)-N-(2-oxoazepan-3-yl)-4-(2-phenyl-1H-indole-6-sulfonamido)cyclohexanecarboxamide], with 10 nM; and `O=C([C@H]1CC[C@H](NS(=O)(=O)c2ccc3c(c2)oc2ccccc23)CC1)N1CCNC[C@@H]1c1ccccc1` [Example 264, N-((1S,4r)-4-((S)-2-phenylpiperazine-1-carbonyl)cyclohexyl)dibenzo[b,d]furan-3-sulfonamide], with 20 nM. Take `CC(C)COC(=O)N1CCNc2ncc(S(=O)(=O)N[C@H]3CC[C@H](C(=O)N[C@H](C)c4ccc(F)cc4)CC3)cc21` [Example 200, isobutyl 7-(N-((1R,4r)-4-((R)-1-(4-fluorophenyl)ethylcarbamoyl)cyclohexyl)sulfamoyl)-3,4-dihydropyrido[3,2-b]pyrazine-1(2H)-carboxylate]: the IC50 was 60 nM.

For `COC(=O)N1CCNc2ncc(S(=O)(=O)N[C@H]3CC[C@H](C(=O)N[C@H](C)c4ccc(F)cc4)CC3)cc21` [Example 222, methyl 7-(N-((1R,4r)-4-((R)-1-(4-fluorophenyl)ethylcarbamoyl)cyclohexyl)sulfamoyl)-3,4-dihydropyrido[3,2-b]pyrazine-1(2H)-carboxylate], the IC50 amounted to 40 nM. Then `CC(C)OC(=O)c1ccc(NS(=O)(=O)c2ccc3nc(-c4cncs4)[nH]c3c2)cc1` [Example 510, isopropyl 4-(2-(thiazol-5-yl)-1H-benzo[d]imidazole-6-sulfonamido)benzoate], with 1810 nM; and `CC(C)(C)c1nnc([C@H]2CC[C@H](NS(=O)(=O)c3ccc4[nH]c(Nc5ccc(N6CCOCC6)cc5)nc4c3)CC2)o1` [Example 600, N-((1r,4r)-4-(5-tert-butyl-1,3,4-oxadiazol-2-yl)cyclohexyl)-2-(4-morpholinophenylamino)-1H-benzo[d]imidazole-5-sulfonamide], with 139 nM. Then `CCN(C)C(=O)[C@H]1CC[C@H](NS(=O)(=O)c2ccc3cc(-c4ccc(CO)cc4)n(C)c3c2)CC1` [Example 349, (1r,4r)-N-ethyl-4-(2-(4-(hydroxymethyl)phenyl)-1-methyl-1H-indole-6-sulfonamido)-N-methylcyclohexanecarboxamide], with 100 nM.

(Values after US8697739B2, “Bicyclic acetyl-CoA carboxylase inhibitors and uses thereof” (Novartis AG, priority 2010, dated 2014).)
